From ChEMBL document CHEMBL1143206, “Carbonic anhydrase inhibitors: copper(II) complexes of polyamino-polycarboxylamido aromatic/heterocyclic sulfonamides are very potent inhibitors of the tumor-associated isoforms IX and XII” (Bioorg Med Chem Lett, 2008)

biological target: Carbonic anhydrase 12 (Homo sapiens, UniProt O43570)
Sequence (O43570 whole entry): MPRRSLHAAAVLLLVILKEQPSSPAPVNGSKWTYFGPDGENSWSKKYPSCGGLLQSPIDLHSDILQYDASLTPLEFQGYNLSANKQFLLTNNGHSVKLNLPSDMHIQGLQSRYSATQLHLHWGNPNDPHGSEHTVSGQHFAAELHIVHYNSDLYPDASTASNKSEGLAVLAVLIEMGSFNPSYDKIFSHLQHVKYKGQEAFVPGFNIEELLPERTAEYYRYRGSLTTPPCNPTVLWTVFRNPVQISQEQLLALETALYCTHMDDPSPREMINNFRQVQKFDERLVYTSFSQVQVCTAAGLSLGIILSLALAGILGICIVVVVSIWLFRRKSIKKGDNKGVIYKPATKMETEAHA
Description: Inhibition of human recombinant CA12 by CO2 hydration stopped flow assay

With O=C1NS(=O)(=O)c2ccccc21 [SACCHARIN] the Ki was 633 nM.

biological target: Carbonic anhydrase 9 (Homo sapiens, UniProt Q16790)
Description: Inhibition of human recombinant CA9 by CO2 hydration stopped flow assay

NS(=O)(=O)c1ccc(CNC(=O)CN(CCN(CCN(CC(=O)O)CC(=O)NCc2ccc(S(N)(=O)=O)cc2)CC(=O)O)CC(=O)O)cc1 and NS(=O)(=O)c1ccc(CNC(=O)CN(CCN(CC(=O)O)CC(=O)NCc2ccc(S(N)(=O)=O)cc2)CC(=O)O)cc1 are within 1.5-fold of each other in Ki: 8.7 nM for the first, 7.3 nM for the second.

NS(=O)(=O)c1ccc(CCNC(=O)CN(CCN(CC(=O)O)CC(=O)NCCc2ccc(S(N)(=O)=O)cc2)CC(=O)O)cc1 and NS(=O)(=O)c1ccc(CCNC(=O)CN(CCN(CCN(CC(=O)O)CC(=O)NCCc2ccc(S(N)(=O)=O)cc2)CC(=O)O)CC(=O)O)cc1 are within 1.5-fold of each other in Ki: 8.2 nM for the first, 7.5 nM for the second.

NS(=O)(=O)c1ccc(NC(=O)CN(CCN(CCN(CC(=O)O)CC(=O)Nc2ccc(S(N)(=O)=O)cc2)CC(=O)O)CC(=O)O)cc1 and NS(=O)(=O)c1ccc(NC(=O)CN(CCN(CC(=O)O)CC(=O)Nc2ccc(S(N)(=O)=O)cc2)CC(=O)O)cc1 are within 1.5-fold of each other in Ki: 8.4 nM for the first, 7.8 nM for the second.

NS(=O)(=O)c1cccc(NC(=O)CN(CCN(CC(=O)O)CC(=O)Nc2cccc(S(N)(=O)=O)c2)CC(=O)O)c1 and NS(=O)(=O)c1cccc(NC(=O)CN(CCN(CCN(CC(=O)O)CC(=O)Nc2cccc(S(N)(=O)=O)c2)CC(=O)O)CC(=O)O)c1 are within 1.5-fold of each other in Ki: 7.9 nM for the first, 9.6 nM for the second.

NS(=O)(=O)c1nnc(NC(=O)CN(CCN(CC(=O)O)CC(=O)Nc2nnc(S(N)(=O)=O)s2)CC(=O)O)s1 and NS(=O)(=O)c1nnc(NC(=O)CN(CCN(CCN(CC(=O)O)CC(=O)Nc2nnc(S(N)(=O)=O)s2)CC(=O)O)CC(=O)O)s1 are within 1.5-fold of each other in Ki: 8.5 nM for the first, 8.3 nM for the second.

Molecule O=C1NS(=O)(=O)c2ccccc21 [SACCHARIN] has a Ki of 103 nM.
